pIC50: −log10 of the molar value. “And” between values parts separate entries of the source, which are not always exact repeats. Equal entries are not always repeated. “Also recorded” adds a separate entry of the source. Where two headings read alike, the source gives them in different places.
Experiments:
[1] = test system: H9C2 cells; test: cAMP accumulation in H9C2 cells; type: cell-based; settings: 5 μM ISO, 3 minutes, 10 μM drug
Excerpt: […] Fludarabine ((+)-2-Fluoro-9-(5-O-phosphono-β-D-arabinofuranosyl)-9H-purin-6-amine) and Cladribine (2-chloro-2′-deoxyadenosine) are anti-cancer drugs, Adefovir (Bis(2,2-dimethylpropanoyloxymethyl)[2-(6-amino-9H-purin-9-yl)ethoxymethyl]phosphonate) and Zidovudine are anti-HIV drugs. Zidovudine-TP is a metabolite of zidovudine which inhibits virus replication. TP; triphosphate. 3-Deazaadenosine, Formycin A (7-Amino-3-(β-D-ribofuranosyl)-1H-pyrazolo[4,3-d]pyrimidine), 2-Far (2-Fluoroadenosine), formycin A ((2S,3R,4S,5R)-2-(7-amino-2H-pyrazolo[5,4-e]pyramidin-3-yl-5-(hydroxymeth-yl)oxolane-3,4-diol), 2-FD (2-Fluoro-2′-deoxyadenosine) and 2′5′ ddAdo (2′5′-dideoxyadenosine) are experimental drugs.
(§1) Mice were anesthetized with 2.5% tribromoethanol (0.010 to 0.015 mL per gram of body weight) injected intraperitoneally, and echocardiography was performed with ultrasonography (ACUSON Sequoia C256, Siemens Medical Solutions, Malvern, Pa.). For acute injection of isoproterenol, forskolin and milrinon, a PE-10 catheter was inserted into the right jugular vein, and drugs were injected at the rate of 1 μl/s. cAMP accumulation assay in H9C2 cells, a cardiac myoblast cell line, was examined as previously described.

[2] = biological target: type 5 AC (Homo sapiens, UniProt O95622); test: Double-reciprocal plots of type 5 AC catalytic activity against ATP
Experimental: Hearts and striatum were dissected from the mice and membrane preparations were made as previously described. This crude membrane preparation was used in the AC assay. AC activity was measured by a modification of the method of Salomon et al. as previously described. […] Double-reciprocal plots were examined as previously described.

[3] = test system: AC5; test: AC inhibition, recombinant AC proteins: AC5; type: biochemical
[4] = test system: cardiac myocytes; test: ISO-induced apoptosis in cultured cardiac myocytes (DNA fragmentation ELISA); type: cell-based; settings: 100 μM ISO, 48 h
Experimental: Cultured cardiac myocytes were incubated with 100 μM ISO in the presence or absence of AC5 inhibitors at the indicated concentrations for 48 h.

[5] = test system: C57Bl/6 mice, chronic ISO infusion; test: Chronic ISO infusion heart failure model; type: in vivo, mouse
Excerpt: ISO with or without AC5 inhibitors were chronically infused with osmotic mini-pump implanted subcutaneously at indicated doses for 1 week in c57Bl/6 mice. Mice were then subjected to echocardiography (a) and the hearts were removed and subjected to pathological examinations such as myocardial apoptosis (b) and fibrosis (c). n=4-8.
In C57Bl/6 mice, ISO with or without AC5 inhibitors or metoprolol were chronically infused with an osmotic mini-pump at the indicated doses for 1 week. Mice were then subjected to echocardiography (a) and heart tissue were subjected to a myocardial apoptosis assay (b). *, p<0.01 vs vehicle. #, p<0.05 vs vehicle. .dagger., p<0.01 vs ISO. .dagger-dbl., p<0.05 vs ISO. n=4-15. […] Comparisons between multiple groups were made using ANOVA with post-hoc tests.
Tenofovir diphosphate (PMPA-PP), zidovudine monophosphate (MP), zidovudine diphosphate (PP), zidovudine triphosphate (TP), famciclovir penciclovir and valaciclovir were purchased from Moravek. Formycin A (FMA) and Formycin B (FMB) were purchased from Berry and Associates. All other reagents were from Sigma unless specified. Long-term infusion of isoproterenol (Sigma, St. Louis, Mo.) was performed for 7 days at a dose of 60 mg/kg/d with or without AC5 inhibitors by using a miniosmotic pump (ALZET model 2001, DURECT Corp, Cupertino, Calif.). Control mice received vehicle in pumps. Pumps were removed 24 hours before biochemical and physiological studies. Experiments were performed in 3- to 5-month-old male C57Bl/6, and in AC5Tg transgenic mice. This study was approved by the Animal Care and Use Committee at New Jersey Medical School.
as §1

[6] = biological target: T1, AC5 (UniProt P30803); test: AC inhibition, recombinant AC proteins: AC5; type: biochemical; settings: read-out: IC50 for AC5
T1 construct: IC50 AC5; other: recombinant AC proteins; other: THFA: in the presence of Gs-α/GTPαS/forskolin

[7] = test system: WT and AC5KO mice; test: Heart rate and arterial pressure in conscious WT and AC5KO mice; type: in vivo, mouse; settings: for decrease in HR in conscious AC5KO / decrease in HR in conscious WT: 0.01 μg/g (0.01 mg/kg) i.v.
Excerpt: In AC5KO and WT mice, four ECG wires (New England Electric Wire Corporation, Lisbon, N.H., USA) were placed subcutaneously, a silicone elastomer tubing (Cardiovascular Instrument Corp., Wakefield, Mass., USA) was inserted into the right external jugular vein and a 1.4 F micromanometer catheter (Millar Instruments, Inc., Houston, Tex., USA) was inserted into the lower abdominal aorta via the femoral artery as described previously with some modifications. The ECG wires, the silicone elastomer tubing and the micromanometer catheter were tunneled subcutaneously to the back, externalized, and secured in a plastic cap. On the day of the study, each mouse was placed in the mouse holder, the jugular venous catheter was accessed and connected to a microliter syringe (Hamilton Co., Reno, Nev., USA), the 1.4 F micromanometer catheter was connected to a recorder (Dash 4u; Astro-Med, Inc., West Warwick, R.I., USA) and the ECG wires were connected to an ECG amplifier (Gould Inc., Cleveland, Ohio, USA). All experiments were recorded with animals in the conscious state. After at least 6 hours recovery from the implantation of the catheter, when a stable heart rate (HR) was achieved, the baseline ECG and arterial pressure (AP) were recorded for 5 min. Ach (0.05 μg/g) was then administered intravenously (i.v.), and the ECG and AP recording were repeated. A recovery period of 15 min was allowed for the HR and AP to return to baseline before administering the next drug. Baseline HR slowing was examined in response to phenylephrine (0.2 μg i.v.).
Electrocardiogram (ECG) wires, a jugular vein catheter for drug infusion, and a femoral artery catheter for arterial pressure monitoring were implanted under anesthesia. Measurements of left ventricular ejection fraction (LVEF) were taken using echocardiography under anesthesia with 2.5% tribromomethanol (0.010-0.015 ml/g body wt) injected intraperitoneally (i.p.). Intravenous (i.v.) infusion of ISO (0.04 μg/kg/min i.v. for 5 min) was performed using an infusion pump. To examine the responses to a muscarinic agonist, acetylcholine (ACh) (25 mg/kg i.p.) was co-administered i.p. during the i.v. infusion of ISO (0.04 μg/kg/min). In addition, in conscious mice ACh (0.01 and 0.05 mg/kg), atropine (0.25, 1 and 2 mg/kg), or verapamil (0.75 mg/kg) were administered i.v., and the ECG was recorded. A recovery period of 15 min was allowed for the HR to return to baseline before administering the next drug. To examine HR responses to baroreflex hypertension, phenylephrine (0.2 mg/kg i.v.) was infused, and the ECG and arterial pressure were measured.

[8] = test system: AC; test: AC activity in heart membranes from WT and AC5KO mice; type: biochemical, mouse
Experimental: Protein concentration was measured by the method of Bradford using bovine serum albumin as a standard. AC activity was measured as described previously. AC activity was linear within the incubation time up to 30 min. In order to harvest hearts for tissue cAMP content measurements, mice were allowed to acclimate to the surroundings in the laboratory for an hour before sacrifice. Freshly isolated hearts were briefly immersed in liquid nitrogen. The tissue was homogenized in ice-cold 6% percholic acid, and cAMP was extracted as described before. The concentration of cAMP was determined with an RIA kit (PerkinElmer Life Sciences, Boston, Mass., USA).
cAMP production in membranes from the hearts of AC5KO and WT at 6 months of age was examined. The steady state AC activity was determined as the maximal capacity of cAMP production in the presence of ISO (100 μM ISO+100 μM GTP), GTPγS (100 μM) or forskolin (100 μM). […] Basal cardiac function was not decreased, but the response to ISO and muscarinic inhibition of ISO were attenuated.
Protein concentration was measured by the Bradford method using bovine serum albumin as a standard. AC activity was measured as described previously. AC activity was linear within the incubation time up to 30 min. For the study of Ca^2+ inhibition, the membranes were treated first with EGTA to extract the endogenous Ca^2+ prior to the assay. Free Ca^2+ concentrations were obtained with the use of 200 μmol/L EGTA buffers as described previously. The experiments with Ca^2+ inhibition were conducted in the presence of 100 μmol/L isoproterenol (ISO) plus 100 μmol/L GTP.
cAMP production in membranes from the hearts of AC5KO and WT mice at the age of 6 months were examined. The steady state AC activity in the membrane preparation was determined as the maximal capacity of cAMP production in the presence of ISO ([…], ISO+100 μmol/L GTP), guanosine-5′-O-(3-triophosphate) GTP[…]S (100 μmol/L), or forskolin (100 μmol/L). AC activity was decreased in AC5KO relative to that of WT by 35+/−4% (basal), 27+/−5% (ISO), 27+/−2% (GTPγS), and 40+/−5% (forskolin).

Sequence of type 5 AC (O95622 whole entry): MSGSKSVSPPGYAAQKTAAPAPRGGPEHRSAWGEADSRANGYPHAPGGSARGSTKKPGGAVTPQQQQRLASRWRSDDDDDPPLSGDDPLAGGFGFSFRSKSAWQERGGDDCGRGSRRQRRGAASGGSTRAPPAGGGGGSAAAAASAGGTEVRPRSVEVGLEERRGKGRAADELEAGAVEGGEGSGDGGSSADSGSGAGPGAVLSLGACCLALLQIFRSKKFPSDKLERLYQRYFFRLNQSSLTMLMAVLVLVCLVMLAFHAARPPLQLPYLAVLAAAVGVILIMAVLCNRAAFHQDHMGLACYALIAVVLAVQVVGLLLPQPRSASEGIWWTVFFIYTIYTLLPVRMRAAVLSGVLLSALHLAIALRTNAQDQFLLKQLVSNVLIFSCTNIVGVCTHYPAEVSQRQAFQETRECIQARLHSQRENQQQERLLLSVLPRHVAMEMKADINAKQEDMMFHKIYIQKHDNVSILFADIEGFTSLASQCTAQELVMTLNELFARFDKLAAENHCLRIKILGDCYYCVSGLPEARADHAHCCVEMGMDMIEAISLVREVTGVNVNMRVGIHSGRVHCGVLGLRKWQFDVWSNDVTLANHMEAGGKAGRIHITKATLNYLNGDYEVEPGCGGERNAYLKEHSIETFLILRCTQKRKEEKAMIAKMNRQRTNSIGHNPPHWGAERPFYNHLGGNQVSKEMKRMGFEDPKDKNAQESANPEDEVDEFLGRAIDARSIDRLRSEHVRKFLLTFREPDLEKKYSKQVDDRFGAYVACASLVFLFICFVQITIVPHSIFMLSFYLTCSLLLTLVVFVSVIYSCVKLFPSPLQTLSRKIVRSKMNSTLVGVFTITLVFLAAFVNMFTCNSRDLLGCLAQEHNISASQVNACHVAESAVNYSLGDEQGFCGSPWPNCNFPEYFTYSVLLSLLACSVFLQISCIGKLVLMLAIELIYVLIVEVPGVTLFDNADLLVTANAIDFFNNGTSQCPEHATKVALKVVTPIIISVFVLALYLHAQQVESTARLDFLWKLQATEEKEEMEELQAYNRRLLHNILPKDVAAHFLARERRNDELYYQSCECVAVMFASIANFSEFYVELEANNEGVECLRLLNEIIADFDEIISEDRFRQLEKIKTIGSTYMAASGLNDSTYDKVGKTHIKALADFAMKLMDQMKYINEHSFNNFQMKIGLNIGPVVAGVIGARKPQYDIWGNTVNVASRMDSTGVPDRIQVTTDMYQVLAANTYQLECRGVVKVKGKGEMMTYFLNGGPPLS

SMILES: CC(Cn1cnc2c(N)ncnc21)OCP(=O)(O)OP(=O)(O)OP(=O)(O)O (stereo in doubt) [PMPA-PP, Tenofovir diphosphate]
- inhibition of cAMP accumulation in H9C2 cells [1]: little inhibition

SMILES: Nc1nc(F)nc2c1ncn2[C@@H]1O[C@H](CO)[C@@H](O)[C@H]1O [2-fluoroadenosine, 2-Fluoroadenosine]
- inhibition of cAMP accumulation in H9C2 cells [1]: moderately inhibited
- mode of inhibition with respect to ATP [2]: non-competitive

SMILES: C[C@H]1O[C@@H](n2cnc3c(N)ncnc32)C[C@@H]1O [2′5′-dd-Ado, 2′5′-dideoxyadenosine]
- Selectivity ratio for AC5, AC5/AC2 ([3]; ratio of IC50 for AC5 to that for AC2): 0.00067
- Selectivity ratio for AC5, AC5/AC3 ([3]; ratio of IC50 for AC5 to that for AC3): 0.0063
- inhibition of cAMP accumulation in H9C2 cells [1]: greatest inhibition
- ISO-induced apoptosis in cultured cardiac myocytes [4]: abolished
- ISO-induced decrease in LVEF (and FS) ([5]; ISO 60 mg/kg/d 7 days, Ara-Ade 20 and 100 mg/kg/day, 2′5′ ddAdo 20 mg/kg/day): rescued LVEF and FS reduction
- ISO-induced cardiac fibrosis ([5]; chronic ISO infusion): significantly inhibited
- ISO-induced myocardial apoptosis in vivo ([5]; chronic ISO infusion): significantly inhibited
- ISO-induced wall thickening (DESP, DPW) ([5]; chronic ISO infusion): neither Ara-Ade nor 2′5′ ddAdo inhibited
- LVW/BW and myocyte cross sectional area ([5]; chronic ISO infusion): increased
- mode of inhibition with respect to ATP [2]: non-competitive

SMILES: Nc1ncnc2c1ncn2[C@H]1C[C@H](OP(=O)(O)O)[C@@H](CO)O1 [2′-d-3′-AMP]
- pIC50 [6]: 6.09

SMILES: Nc1ncnc2c1ncn2[C@@H]1O[C@H](CO)[C@@H](OP(=O)(O)O)[C@H]1O [3′-AMP]
- pIC50 ([6]; THFA: in the presence of Gs-α/GTPαS/forskolin): 4.84

SMILES: CC(=O)OCC[N+](C)(C)C [ACh, acetylcholine]
- decrease in HR in conscious AC5KO ([7]; AC5KO): 1.3%
- decrease in HR in conscious AC5KO ([7]; AC5KO, listed as Ach): 7.5%
- decrease in HR in conscious WT ([7]; WT): 15%
- decrease in HR in conscious WT ([7]; WT, listed as Ach): 22%

SMILES: C[N+](C)(C)CCOC(N)=O [Carbachol]
- inhibition of ISO-stimulated AC activity in AC5KO ([8]; 10 μM, AC5KO heart membranes): did not inhibit; also recorded: hardly detectable
- decrease of ISO-stimulated AC activity in WT ([8]; 10 μM, WT heart membranes): 21+/−3.4% and 21+/−3%

SMILES: Nc1ncnc2c([C@@H]3O[C@H](CO)[C@@H](O)[C@H]3O)n[nH]c12 [FMA, 7-Amino-3-(β-D-ribofuranosyl)-1H-pyrazolo[4,3-d]pyrimidine]
- inhibition of cAMP accumulation in H9C2 cells [1]: moderately inhibited

SMILES: CC(C)NCC(O)c1ccc(O)c(O)c1 (centres unmarked) [ISO, isoproterenol]
- increase in AC activity in AC5KO ([8]; 100 μmol/L ISO + 100 μmol/L GTP, AC5KO): 64+/−4 pmol/15 min/mg
- increase in AC activity in WT ([8]; 100 μmol/L ISO + 100 μmol/L GTP, WT): 78+/−6 pmol/15 min/mg

SMILES: CNC[C@H](O)c1cccc(O)c1 [Phenylephrine]
- systolic arterial pressure ([7]; 0.2 μg/g (0.2 mg/kg) i.v., WT and AC5KO): increased systolic arterial pressure significantly in both WT and AC5KO; also recorded: increased systolic arterial pressure similarly in both WT and AC5KO

SMILES: CN1[C@@H]2CC[C@H]1C[C@@H](OC(=O)C(CO)c1ccccc1)C2 (some centres unmarked) [atropine]
- increase in HR in AC5KO ([7]; 1 μg/g i.v., AC5KO): 19+/−7.5 beats/min
- increase in HR in WT ([7]; 1 μg/g i.v., WT): 102+/−22.2 beats/min

SMILES: Nc1nc(Cl)nc2c1ncn2[C@H]1C[C@H](O)[C@@H](CO)O1 [cladribine, 2-chloro-2′-deoxyadenosine]
- inhibition of cAMP accumulation in H9C2 cells [1]: slight inhibition

SMILES: COc1ccc(CCN(C)CCCC(C#N)(c2ccc(OC)c(OC)c2)C(C)C)cc1OC (centres unmarked) [verapamil]
- change in HR in AC5KO ([7]; 0.75 mg/kg i.v., AC5KO): −33+/−10 beats/min
- change in HR in WT ([7]; 0.75 mg/kg i.v., WT): −36+/−10 beats/min

SMILES: Cc1cn([C@H]2C[C@H](N=[N+]=[N-])[C@@H](COP(=O)(O)OP(=O)(O)OP(=O)(O)O)O2)c(=O)[nH]c1=O [zidovudine-TP, zidovudine triphosphate]
- inhibition of cAMP accumulation in H9C2 cells [1]: little inhibition
- mode of inhibition with respect to ATP [2]: competitive
